Measured values as given in US11384075B2, “Quinolinone compounds” (Janssen Pharmaceutica NV, priority 2017, dated 2022).

How the values were obtained:
[1] = target: T1, human FGFR3 V555M enzyme (cytoplasmic domain carrying V555M mutation) (Homo sapiens, UniProt P22607, V555M); test: FGFR3 V555M mobility shift assay (enzymatic assay); assay type: biochemical; details: 30 μM ATP, 45 minutes at 30° C., Caliper EZ reader II
T1 construct: human FGFR3 V555M enzyme (cytoplasmic domain carrying V555M mutation, from Carna Biosciences); purchased Carna Biosciences
T1 sequence (P22607 397-806 V555M limits assumed): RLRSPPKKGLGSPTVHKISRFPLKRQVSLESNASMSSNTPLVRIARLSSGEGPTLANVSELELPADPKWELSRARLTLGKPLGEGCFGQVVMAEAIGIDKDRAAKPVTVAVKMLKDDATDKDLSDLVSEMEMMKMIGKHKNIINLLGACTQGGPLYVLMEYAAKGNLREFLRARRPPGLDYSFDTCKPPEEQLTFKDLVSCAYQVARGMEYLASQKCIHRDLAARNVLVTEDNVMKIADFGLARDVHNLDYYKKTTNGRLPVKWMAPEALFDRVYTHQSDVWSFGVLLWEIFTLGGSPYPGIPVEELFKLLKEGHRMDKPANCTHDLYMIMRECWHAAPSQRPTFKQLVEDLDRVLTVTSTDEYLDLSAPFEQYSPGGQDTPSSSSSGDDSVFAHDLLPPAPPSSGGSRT
Outline: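 Cytoplasmic-domain FGFR3 V555M (0.04 ng/μL) with 30 μM ATP and 1 μM FL-peptide 30 in HEPES pH 7.4/MgCl2/Brij35/DTT, 1% DMSO, 45 min at 30 °C, EDTA-stopped. Mobility-shift read of substrate-product conversion; 10-point 4× dilution from 10 μM fitted for IC50/pIC50.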

[2] = system: NIH/3T3 cells transfected with the same control vector; test: NIH/3T3 mock cell proliferation assay (counter assay, general toxicity); assay type: cell-based; details: Mus musculus, NIH3T3, 72 h, 72-hr incubation, CellTiter Glo, starting with 30 μM; counter assay for general toxicity; read-out: NIH/3T3 MOCK CTG (IC50)
Outline: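 Control-vector NIH/3T3 cells, 30,000/well in DMEM with 10% FBS, exposed 72 h at 37 °C to compound (9 points, 3-fold from 30 μM, 0.3% DMSO). CellTiter-Glo luminescence normalized to survival %; IC50, pIC50 and Hill slope from concentration-response fit.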

[3] = target: T2, NIH/3T3 cells overexpressing FGFR3 WT-TACC3 fusion protein (Homo sapiens, UniProt P22607); test: NIH/3T3 FGFR3 WT-TACC3 cell proliferation assay; assay type: cell-based; details: 72-hr incubation, CellTiter Glo, starting with 10 μM; read-out: NIH/3T3 FGFR3 WT-TACC3 CTG (IC50)
T2 construct: NIH/3T3 FGFR3 WT-TACC3 CTG (IC50); other: 72-hr incubation, CellTiter Glo, starting with 10 μM; fused on or other part: Q9Y6A5 (Transforming acidic coiled-coil-containing protein 3)
T2 sequence (P22607 whole entry, change not shown, the tested form may be a part): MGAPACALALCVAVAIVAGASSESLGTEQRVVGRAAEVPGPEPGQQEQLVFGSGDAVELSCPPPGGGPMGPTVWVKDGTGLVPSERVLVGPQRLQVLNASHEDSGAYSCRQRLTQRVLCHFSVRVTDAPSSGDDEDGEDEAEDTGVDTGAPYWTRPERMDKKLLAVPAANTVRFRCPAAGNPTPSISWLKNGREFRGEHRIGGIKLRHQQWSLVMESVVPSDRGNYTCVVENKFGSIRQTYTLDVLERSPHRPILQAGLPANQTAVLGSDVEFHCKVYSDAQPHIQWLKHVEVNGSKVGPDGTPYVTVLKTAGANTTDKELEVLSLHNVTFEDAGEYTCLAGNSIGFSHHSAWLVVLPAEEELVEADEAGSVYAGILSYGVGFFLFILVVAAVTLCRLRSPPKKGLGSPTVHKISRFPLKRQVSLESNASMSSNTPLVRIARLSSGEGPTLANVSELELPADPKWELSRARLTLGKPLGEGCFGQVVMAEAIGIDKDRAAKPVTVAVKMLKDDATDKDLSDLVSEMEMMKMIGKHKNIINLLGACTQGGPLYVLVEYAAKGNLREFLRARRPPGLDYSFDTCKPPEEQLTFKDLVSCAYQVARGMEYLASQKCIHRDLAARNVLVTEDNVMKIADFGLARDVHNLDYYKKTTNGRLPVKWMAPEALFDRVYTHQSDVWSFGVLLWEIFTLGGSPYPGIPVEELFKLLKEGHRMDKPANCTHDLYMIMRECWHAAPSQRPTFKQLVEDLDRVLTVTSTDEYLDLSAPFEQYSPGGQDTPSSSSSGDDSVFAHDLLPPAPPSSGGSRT
Outline: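 Cells seeded overnight, then exposed 72 h at 37 °C to compound in 9-point 4-fold dilutions from 10 μM (0.1% DMSO final). Viability read by CellTiter-Glo luminescence, normalized to survival %; IC50, pIC50 and Hill slope from concentration-response fit.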

[4] = system: NIH/3T3 cells overexpressing FGFR3 WT-TACC3 fusion protein; test: NIH/3T3 FGFR3 WT-TACC3 cellular phospho-ERK assay (in vitro PD assay); assay type: cell-based; details: Mus musculus, NIH3T3; 1-hr incubation, AlphaLISA SureFire Ultra p-ERK1/2 (Thr202/Tyr204); read-out: NIH/3T3 FGFR3 WT-TACC3 pERK (IC50)
Experimental: NIH/3T3 FGFR3 WT-TACC3 Cellular Phospho-ERK Assay (In Vitro PD Assay)
(§1) 50 μL of cell suspension (NIH/3T3 cells overexpressing FGFR3 WT-TACC3 fusion protein) (total 10,000 cells per well in growth medium (DMEM containing 1% Glutamax, 10% FBS and 1% Pen/Strep)) was seeded in a 384-well plate. After overnight incubation at 37° C. and 5% CO2, 5.5 μL of growth medium containing 10× testing compound was added into cell cultures (10 dose points with 4× serial dilution, starting with 10 μM, 0.1% DMSO final). After 1-hr incubation at 37° C. and 5% CO2, the medium was depleted and AlphaLISA SureFire Ultra p-ERK1/2 (Thr202/Tyr204) Assay Kit (from PerkinElmer) was applied for phospho-ERK level detection according to the kit instructions. The RFUs (relative fluorescence units were measured on EnVision microplate reader (ex. 680 nm, em. 615 nm) and concentration-response curve was plotted using Prism to calculate IC50 (M), pIC50 (−log IC50) and HillSlope value.

[5] = system: NIH/3T3 cells overexpressing FGFR3 V555M-TACC3 fusion protein; test: NIH/3T3 FGFR3 V555M-TACC3 cellular phospho-ERK assay (in vitro PD assay); assay type: cell-based; details: Mus musculus, NIH3T3; 1-hr incubation, AlphaLISA SureFire Ultra p-ERK1/2 (Thr202/Tyr204); read-out: NIH/3T3 FGFR3 V555M-TACC3 pERK (IC50)
Experimental: NIH/3T3 FGFR3 V555M-TACC3 Cellular Phospho-ERK Assay (In Vitro PD Assay)
as §1, with “V555M-TACC3” for “WT-TACC3”

SMILES: C[C@H](Nc1c(-c2nc3ccc(N4CCOCC4)c(F)c3[nH]2)c(=O)[nH]c2ccccc12)c1ccccn1 [Compound 24, (S)-3-(7-fluoro-6-morpholino-1H-benzo[d]imidazol-2-yl)-4-((1-(pyridin-2-yl)ethyl)-amino)quinolin-2(1H)-one]
- IC50 [1]: 0.929 nM
- IC50 [2]: 13.1 µM
- GI50 [3]: 20.2 nM
- IC50 [4]: 13.3 nM
- IC50 [5]: 0.959 nM

SMILES: C[C@H](Nc1c(-c2nc3ccc(N4CCOCC4)cc3[nH]2)c(=O)[nH]c2ccccc12)c1ncccn1 [Compound 2, (S)-3-(6-morpholino-1H-benzo[d]imidazol-2-yl)-4-((1-(pyrimidin-2-yl)ethyl)amino)-quinolin-2(1H)-one]
- IC50 [1]: 0.213 nM
- IC50 [2]: 15.3 µM
- GI50 [3]: 3.61 nM
- IC50 [4]: 1.24 nM
- IC50 [5]: 0.946 nM

SMILES: C[C@@H]1CN(c2ccc3nc(-c4c(N[C@@H](C)c5ccccn5)c5ccccc5[nH]c4=O)[nH]c3c2)C[C@@H](C)O1 [Compound 21, 3-(6-((2R,6R)-2,6-dimethylmorpholino)-1H-benzo[d]imidazol-2-yl)-4-(((S)-1-(pyridin-2-yl)ethyl)amino)quinolin-2(1H)-one]
- IC50 [1]: 2.75 nM
- IC50 [2]: 13.6 µM
- GI50 [3]: 25 nM
- IC50 [4]: 8.41 nM
- IC50 [5]: 2.35 nM

SMILES: C[C@@H]1CN(c2ccc3nc(-c4c(N[C@@H](C)c5ccccn5)c5ccccc5[nH]c4=O)[nH]c3c2)C[C@H](C)O1 [Compound 4, 3-(6-((2S,6R)-2,6-dimethylmorpholino)-1H-benzo[d]imidazol-2-yl)-4-(((S)-1-(pyridin-2-yl)ethyl)amino)quinolin-2(1H)-one]
- IC50 [1]: 1.34 nM
- IC50 [2]: 7.69 µM
- GI50 [3]: 24.8 nM
- IC50 [4]: 3.87 nM
- IC50 [5]: 1.09 nM
